Assay results published in the supplement of paper PMC12669032.

Assays:
Experiment in all cases: growth AUC relative to DMSO control (fraction); higher = more growth (less inhibition)
Conditions in all cases: 24 h
Streptococcus salivarius = test system: Streptococcus salivarius
Description: (§1)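 Validation screen: 11 independently purchased pesticides tested on 8 gut bacterial strains at 2.5–320 µM in mGAM, anaerobic, 37 °C, 24 h. Growth AUC normalised to DMSO controls, mean of 3 independent experiments.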

Lactobacillus gasseri = test system: Lactobacillus gasseri
Description: as §1

Escherichia coli IAI1 = test system: Escherichia coli IAI1
Description: as §1

[1] = test system: Parabacteroides distasonis
Description: as §1

Bacteroides uniformis = test system: Bacteroides uniformis
Description: as §1

Clostridium difficile = test system: Clostridium difficile
Description: as §1

Eubacterium rectale = test system: Eubacterium rectale
Description: as §1

Roseburia intestinalis = test system: Roseburia intestinalis
Description: as §1

Cc1cc(C(C#N)c2ccc(Cl)cc2)c(Cl)cc1NC(=O)c1cc(I)cc(I)c1O (configuration not stated) [CLOSANTEL]
growth AUC
Conditions | Bacteroides uniformis | Clostridium difficile | Escherichia coli IAI1 | Eubacterium rectale | Lactobacillus gasseri | Roseburia intestinalis | Streptococcus salivarius | [1]
2.5 µM | 1 | 0.0348 | 1.07 | 0.453 | 0.809 | 0.246 | 1.05 | 0.245
5 µM | 0.973 | 0.0106 | 1.04 | 0.242 | 0.827 | 0.149 | 1.04 | 0.00935
10 µM | 0.616 | 0.0157 | 1.03 | 0.0185 | 0.866 | 0.0586 | 1.09 | 0.00581
20 µM | 0.609 | 0.0183 | 0.929 | 0.0129 | 0.848 | 0.0162 | 1.06 | 0.00682
40 µM | 0.573 | 0.00635 | 0.904 | 0.00913 | 0.815 | 0.0268 | 1.04 | 0.0119
80 µM | 0.575 | 0.0171 | 0.886 | 0.0119 | 0.836 | 0.0158 | 1.13 | 0.0133
160 µM | 0.575 | 0.072 | 0.861 | 0.0223 | 0.81 | 0.0258 | 1.06 | 0.0101

CCC(C)[C@H]1O[C@]2(C=C[C@@H]1C)C[C@@H]1C[C@@H](C/C=C(\C)[C@@H](O[C@H]3C[C@H](OC)[C@@H](O[C@H]4C[C@H](OC)[C@@H](O)[C@H](C)O4)[C@H](C)O3)[C@@H](C)/C=C/C=C3\CO[C@@H]4[C@H](O)C(C)=C[C@@H](C(=O)O1)[C@]34O)O2.CO[C@H]1C[C@H](O[C@H]2[C@H](C)O[C@@H](O[C@@H]3/C(C)=C/C[C@@H]4C[C@@H](C[C@]5(C=C[C@H](C)[C@@H](C(C)C)O5)O4)OC(=O)[C@@H]4C=C(C)[C@@H](O)[C@H]5OC/C(=C\C=C\[C@@H]3C)[C@]54O)C[C@@H]2OC)O[C@@H](C)[C@@H]1O (some centres not stated) [ABAMECTIN]
growth AUC
Conditions | Bacteroides uniformis | Clostridium difficile | Escherichia coli IAI1 | Eubacterium rectale | Lactobacillus gasseri | Roseburia intestinalis | Streptococcus salivarius | [1]
2.5 µM | 0.975 | 1.02 | 1.01 | 1.29 | 1.04 | 0.865 | 1.04 | 0.985
5 µM | 0.996 | 0.979 | 0.978 | 1.17 | 1.07 | 0.871 | 0.973 | 0.918
10 µM | 0.968 | 0.968 | 1.01 | 1.05 | 1.03 | 0.564 | 0.983 | 0.409
20 µM | 0.996 | 0.986 | 0.957 | 0.881 | 0.983 | 0.21 | 0.876 | 0.057
40 µM | 0.974 | 0.966 | 1.01 | 0.774 | 0.952 | 0.121 | 0.894 | 0.0234
80 µM | 0.971 | 0.887 | 1 | 0.892 | 1.02 | 0.102 | 0.887 | 0.0192
160 µM | 0.99 | 0.885 | 0.974 | 0.999 | 0.889 | 0.107 | 1.01 | 0.0484

O=[N+]([O-])c1cc(C(F)(F)F)c(Cl)c([N+](=O)[O-])c1Nc1ncc(C(F)(F)F)cc1Cl [FLUAZINAM]
growth AUC
Conditions | Bacteroides uniformis | Clostridium difficile | Escherichia coli IAI1 | Eubacterium rectale | Lactobacillus gasseri | Roseburia intestinalis | Streptococcus salivarius | [1]
2.5 µM | 1.04 | 0.99 | 1.03 | 1.04 | 1.01 | 1.01 | 1.04 | 0.966
5 µM | 1.02 | 0.995 | 1.01 | 0.887 | 0.968 | 1.08 | 1 | 0.859
10 µM | 0.996 | 0.969 | 1.03 | 0.692 | 0.921 | 0.959 | 0.984 | 0.411
20 µM | 0.807 | 0.909 | 0.912 | 0.227 | 0.844 | 0.879 | 0.815 | 0.0128
40 µM | 0.593 | 0.0127 | 0.934 | 0.0306 | 0.847 | 0.584 | 0.992 | 0.0301
